In patent US10160762B2, “6-alkyl dihydropyrazolopyrimidinone compounds as PDE2 inhibitors” (Merck Sharp & Dohme Corp., priority 2015, dated 2018):

Molecular target: T1, human PDE2A1 (Homo sapiens, UniProt O00408)
T1 construct: GST; purchased BPS Bioscience (San Diego, Calif.) 60020; host or cells: insect cells
Test: IMAP FP PDE assay, human PDE2A1
Type: biochemical
Settings: Lab B; read-out: Human PDE2 Ki (nM) Lab B
Method: Selectivity for PDE2, as compared to other PDE families, was assessed using the IMAP® technology. Human PDE10A2 enzyme was prepared from cytosolic fractions of transiently transfected HEK cells. All other PDE's were GST Tag human enzyme expressed in insect cells and were obtained from BPS Bioscience (San Diego, Calif.): PDE1A (Cat#60010), human PDE2A1 (Cat#60020), PDE3A (Cat#60030), PDE4A1A (Cat#60040), PDE5A1 (Cat#60050), PDE6C (Cat#60060), PDE7A (Cat#60070), PDE8A1 (Cat#60080), PDE9A2 (Cat#60090), PDE11A4 (Cat#60110).
Assays for PDE 1 through 11 were performed in parallel at room temperature in 384-well microtiter plates with an incubation volume of 20.2 μL. Solutions of test compounds were prepared in DMSO and serially diluted with DMSO to yield 30 μL of each of ten solutions differing by 3-fold in concentration, at 32 serial dilutions per plate. […] A Labcyte POD 810 (Labcyte, Sunnyvale, Calif.) was used to dispense 200 nL from each well of the titration plate to make eleven copies of the assay plate for each titration, one copy for each PDE enzyme. A solution of each enzyme (dilution from aliquots, sufficient to produce 20% substrate conversion) and a separate solution of FAM-labeled cAMP or FAM-labeled cGMP from Molecular Devices (Sunnyvale, Calif., product # R7506 or cGMP#R7508), at a final concentration of 50 nM were made in the assay buffer (10 mM Tris HCl, pH 7.2, 10 mM MgCl2, 0.05% NaN3 0.01% Tween-20, and 1 mM DTT). Note that the substrate for PDE2 is 50 nM FAM cAMP containing 1000 nM of cGMP. The enzyme and the substrate were then added to the assay plates in two consecutive additions of 10 μL and then shaken to mix. The reaction was allowed to proceed at room temperature for 60 minutes. A binding solution was then made from the kit components, comprised of 80% Solution A, 20% Solution B and binding reagent at a volume of 1/600 the total binding solution. The enzymatic reaction was stopped by addition of 60 μL of the binding solution to each well of the assay plate. The plates were sealed and shaken for 10 seconds. The plates were incubated at room temperature for one hour, then the parallel and perpendicular fluorescence was measured using a Tecan Genios Pro plate reader (Tecan, Switzerland). The apparent inhibition constants for the compounds against all 11 PDE's was determined from the parallel and perpendicular fluorescent readings as described for PDE10 FP assay using the following apparent KM values for each enzyme and substrate combination: PDE1A (FAM cGMP) 70 nM, human PDE2A1 (FAM cAMP) 10,000 nM, PDE3A (FAM cAMP) 50 nM, PDE4A1A (FAM cAMP) 1500 nM, PDE5A1 (FAM cGMP) 400 nM, PDE6C (FAM cGMP) 700 nM, PDE7A (FAM cAMP) 150 nM, PDE8A1 (FAM cAMP) 50 nM, PDE9A2 (FAM cGMP) 60 nM, PDE10A2 (FAM cAMP) 150 nM, PDE11A4 (FAM cAMP) 1000 nM. The intrinsic PDE2 inhibitory activity of a compound which may be used in accordance with the present invention may be determined by these assays.

T1 sequence (O00408 1-920 isoform O00408-2): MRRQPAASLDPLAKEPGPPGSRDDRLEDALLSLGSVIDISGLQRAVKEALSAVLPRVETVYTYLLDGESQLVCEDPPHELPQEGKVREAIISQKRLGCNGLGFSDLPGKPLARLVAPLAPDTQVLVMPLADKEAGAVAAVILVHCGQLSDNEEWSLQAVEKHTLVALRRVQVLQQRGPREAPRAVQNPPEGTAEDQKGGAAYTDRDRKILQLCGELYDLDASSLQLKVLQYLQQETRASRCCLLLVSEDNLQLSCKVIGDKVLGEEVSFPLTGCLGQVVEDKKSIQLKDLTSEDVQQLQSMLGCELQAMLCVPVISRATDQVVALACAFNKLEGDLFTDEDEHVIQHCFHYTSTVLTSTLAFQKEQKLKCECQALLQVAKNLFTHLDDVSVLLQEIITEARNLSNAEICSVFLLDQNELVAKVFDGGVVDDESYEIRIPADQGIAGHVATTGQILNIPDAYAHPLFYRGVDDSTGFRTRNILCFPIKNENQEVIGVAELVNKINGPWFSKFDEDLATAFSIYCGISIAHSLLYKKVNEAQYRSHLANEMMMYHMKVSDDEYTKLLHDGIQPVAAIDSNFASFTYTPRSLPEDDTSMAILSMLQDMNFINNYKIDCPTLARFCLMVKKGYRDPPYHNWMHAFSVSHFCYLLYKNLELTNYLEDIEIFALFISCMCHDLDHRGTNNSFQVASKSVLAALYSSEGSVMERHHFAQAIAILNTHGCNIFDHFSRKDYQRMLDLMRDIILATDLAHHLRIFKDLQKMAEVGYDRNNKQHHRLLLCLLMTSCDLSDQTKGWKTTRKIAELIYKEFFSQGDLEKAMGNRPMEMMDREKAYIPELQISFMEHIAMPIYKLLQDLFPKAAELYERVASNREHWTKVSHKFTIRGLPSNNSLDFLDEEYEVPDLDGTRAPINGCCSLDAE

Question: `Cc1nc2c(c(CC(C)O)nn2C(C)c2ccc(C(F)(F)F)cc2)c(=O)[nH]1` (single isomer, unassigned) [Example 243] was tested. Which Ki did it give?
Answer: 808 nM

Question: Which Ki does the source give for `Cc1nc2c(c(CO)nn2C2CCc3cc(C(F)(F)F)ccc32)c(=O)[nH]1` (single isomer, unassigned) [Example 103, (S)- or (R)-3-(Hydroxymethyl)-6-methyl-1-(5-(trifluoromethyl)-2,3-dihydro-1H-inden-1-yl)-1H-pyrazolo[3,4-d]pyrimidin-4(5H)-one] here?
Answer: 19 nM

Question: Which Ki does the source give for `CNC(=O)c1nn(C(C)c2ccc(C(F)(F)F)cc2)c2nc(C)[nH]c(=O)c12` (single isomer, unassigned) [Example 264] here?
Answer: 233 nM

Question: For `Cc1nc2c(c(C(=O)N3CCOCC3)nn2C(C)c2ccc(C(F)(F)F)cc2)c(=O)[nH]1` (single isomer, unassigned) [Example 271, (S)- or (R)-6-Methyl-3-(morpholine-4-carbonyl)-1-(1-(4-(trifluoromethyl)phenyl)ethyl)-1H-pyrazolo[3,4-d]pyrimidin-4(5H)-one], which Ki is on record?
Answer: > 2960 nM

Question: For `Cc1nc2c(c(-c3ccco3)nn2C(C)c2ccc(C(F)(F)F)cc2)c(=O)[nH]1` (single isomer, unassigned) [Example 74, (R)- or (S)-3-(Furan-2-yl)-6-methyl-1-(1-(4-(trifluoromethyl)phenyl)ethyl)-1H-pyrazolo[3,4-d]pyrimidin-4(5H)-one], which Ki is on record?
Answer: 258 nM

Question: Which Ki does the source give for `Cc1nc2c(c(CO)nn2C(C)c2ccc(C(F)(F)F)cc2Cl)c(=O)[nH]1` (single isomer, unassigned) [Example 18, (R)- or (S)-1-(1-(2-Chloro-4-(trifluoromethyl)phenyl)ethyl)-3-(hydroxymethyl)-6-methyl-1H-pyrazolo[3,4-d]pyrimidin-4(5H)-one] here?
Answer: ~2850 nM

Question: With `Cc1nc2c(c(CC(F)(F)F)nn2C(C)c2ccc(C(F)(F)F)cc2)c(=O)[nH]1` (single isomer, unassigned) [Example 64, (R)- or (S)-6-Methyl-3-(2,2,2-trifluoroethyl)-1-(1-(4-(trifluoromethyl)phenyl)ethyl)-1H-pyrazolo[3,4-d]pyrimidin-4(5H)-one] as the compound, how does the Ki read?
Answer: 274 nM

Question: Which Ki does the source give for `CCc1nc2c(c(CO)nn2C(C)c2ccc(C(F)(F)F)cc2)c(=O)[nH]1` (single isomer, unassigned) [Example 301, (R)- or (S)-6-Ethyl-3-(hydroxymethyl)-1-{1-[4-(trifluoromethyl)phenyl]ethyl}-1,5-dihydro-4H-pyrazolo[3,4-d]pyrimidin-4-one] here?
Answer: 4.7 nM

Question: For `CC(=O)NCc1nn(C(C)c2ccc(C(F)(F)F)cc2)c2nc(C)[nH]c(=O)c12` (single isomer, unassigned) [Example 276], which Ki is on record?
Answer: ~1520 nM

Question: Which Ki does the source give for `Cc1nc2c(c(CC(O)C(F)(F)F)nn2C(C)c2ccc(C(F)(F)F)cc2)c(=O)[nH]1` (single isomer, unassigned) [Example 241] here?
Answer: 610 nM

Question: How did the Ki turn out when `Cc1nc2c(c(CO)nn2C(C)c2ccc(OC(F)(F)F)cc2F)c(=O)[nH]1` (single isomer, unassigned) [Example 105, (S)- or (R)-1-(1-(2-Fluoro-4-(trifluoromethoxy)phenyl)ethyl)-3-(hydroxymethyl)-6-methyl-1H-pyrazolo[3,4-d]pyrimidin-4(5H)-one] was run?
Answer: 1.9 nM

Question: Which Ki does the source give for `Cc1nc2c(c(C(F)F)nn2C(C)c2ccc(C3(C(F)(F)F)CC3)cc2)c(=O)[nH]1` (centres unmarked) [Example 164, 3-(Difluoromethyl)-6-methyl-1-(1-(4-(1-(trifluoromethyl)cyclopropyl)phenyl)ethyl)-1H-pyrazolo[3,4-d]pyrimidin-4(5H)-one] here?
Answer: 8.2 nM

Question: Which Ki does the source give for `Cc1nc2c(c(CO)nn2C(C)c2ccc(C(F)(F)F)cn2)c(=O)[nH]1` (single isomer, unassigned) [Example 152, (S)- or (R)-3-(Hydroxymethyl)-6-methyl-1-(1-(5-(trifluoromethyl)pyridin-2-yl)ethyl)-1H-pyrazolo[3,4-d]pyrimidin-4(5H)-one] here?
Answer: 1180 nM

Question: Which Ki does the source give for `CC(c1ccc(C(F)(F)F)cc1)n1nc(C#N)c2c(=O)[nH]c(CC3CCCC3)nc21` (single isomer, unassigned) [Example 351] here?
Answer: 1010 nM
